pIC50: −log10 of the molar value.
Assays:
[1] = system: Plasmodium falciparum; experiment: Antimalarial activity against Plasmodium falciparum K1 infected in human erythrocytes assessed as parasite growth inhibition; type: functional, organism-based
[2] = Inhibition of Escherichia coli DXR assessed as reduction of NADPH in NADP+ by spectrophotometric analysis; conditions: for pIC50: read-out: IC50
[3] = system: Escherichia coli; experiment: Inhibition of Escherichia coli DXR assessed as reduction of NADPH in NADP+ at 100 nM by spectrophotometric analysis
[4] = system: Plasmodium falciparum; experiment: Antimalarial activity against Plasmodium falciparum 3D7 assessed as parasite growth inhibition; type: functional, organism-based
[5] = system: Plasmodium falciparum; experiment: Antimalarial activity against chloroquine-sensitive Plasmodium falciparum 3D7 assessed as parasite growth inhibition; type: functional, organism-based

Row | Structure (SMILES) | pIC50 [2] | inhibition [3] [%] | pIC50 [1] | also measured
1 | CC(=O)N(O)CCC(Oc1ccccc1)P(=O)(O)O (racemic) |  |  | 4.89 | IC50 [2]: Not Active
2 | CC(=O)N(O)CCC(O)P(=O)(O)O (racemic) | 7.28 |  | 5.74 | 
3 | CC(=O)N(O)CCC(NC(=O)c1ccccc1)P(=O)(O)O (racemic) |  | 1.42 | 4.31 | 
4 | COC(CCN(O)C(C)=O)P(=O)(O)O (racemic) |  | 4.14 | 5.40 | 
5 | O=CN(O)CCCP(=O)(O)O [FOSMIDOMYCIN] |  |  |  | pIC50 [4]: 6.00
6 | CC(=O)N(O)CCCP(=O)(O)O [FR-900098] | 7.82 |  |  | 
7 | CC(=O)N(O)CCC(n1cc(-c2ccccc2)nn1)P(=O)(O)O (racemic) | 5.95 |  | 5.56 | 
8 | CC(=O)N(O)Cc1ccccc1P(OCOC(=O)C(C)(C)C)OCOC(=O)C(C)(C)C |  |  |  | pIC50 [5]: 4.30

More lines, main results first:

Row | pIC50 [2] | inhibition [3] [%] | Structure (SMILES) | pIC50 [1] | also measured
9 | 7.13 |  | CC(=O)N(O)CCC(N=[N+]=[N-])P(=O)(O)O (racemic) | 5.70 | 
10 | 6.68 |  | CC(=O)N(O)CCC(n1cc(C(C)(C)C)nn1)P(=O)(O)O (racemic) | 5.11 | 
11 |  | 3.32 | CC(=O)N(O)CCC(n1ccnn1)P(=O)(O)O (racemic) | 5.05 | 
12 |  | 1.3 | CC(=O)N(O)CCC(NC(=O)Nc1ccccc1)P(=O)(O)O (racemic) | < 4.19 | 
